Experimental data from patent US20180318311A1, “TRICYCLIC 2-QUINOLINONES AS ANTIBACTERIALS” (priority 2017, published 2018).
≈ marks a conversion by molar mass, not a printed value. Counter-ions that a name gives are not always drawn. Like-named read-outs stand apart in the source and are kept apart here.

Key:
Type in all cases: cell-based
[1] = system: E. faecalis ATCC 29212 (NB04001); assay: MIC by broth microdilution, E. faecalis NB04001; settings: Enterococcus faecalis, ATCC29212, CAMHB, 35° C., 20 hours, read-out: Antibacterial activity (MIC) NB04001
How it was run: (§1)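 Per CLSI, strains grown overnight on Mueller-Hinton agar are tested in cation-adjusted Mueller-Hinton broth at about 5×10^5 CFU/mL against serially diluted compound, 1% DMSO final. Incubation runs 20 h at 35° C; MIC is judged visually with OD600 support.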

[2] = system: S. pneumoniae ATCC 25922 (NB07001); assay: MIC by broth microdilution, S. pneumoniae NB07001; settings: Streptococcus pneumoniae, read-out: Antibacterial activity (MIC) NB07001
How it was run: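 MIC in μg/mL taken as the lowest concentration with no visible growth, checked by 600 nm reading after 20 h at 35°C, ambient air. Strains tested per CLSI microdilution in cation-adjusted Mueller-Hinton broth at about 5×10^5 CFU/mL, compounds as two-fold series, 1% DMSO final.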

[3] = system: S. aureus NB01006-AVR005, gyrA (S84L), grlA (580F) and grlB (E471K); assay: microbe, parasite or virus in culture; settings: Staphylococcus aureus, 20 h, read-out: Antibacterial activity (MIC) NB01006-AVR005
How it was run: as §1

[4] = system: S. aureus NB01080 fluoroquinolone-resistant clinical isolate; assay: MIC by broth microdilution, S. aureus NB01080; settings: Staphylococcus aureus, CAMHB, 35° C., 20 hours, read-out: Antibacterial activity (MIC) NB01080
How it was run: as §1

[5] = system: E. coli ATCC 25922 (NB27001); assay: MIC by broth microdilution, E. coli NB27001; settings: Escherichia coli, ATCC25922, CAMHB, 35° C., 20 hours, read-out: Antibacterial activity (MIC) NB27001
How it was run: as §1

[6] = system: P. aeruginosa NB52019, wild-type PAO1 strain; assay: MIC by broth microdilution, P. aeruginosa NB52019; settings: Pseudomonas aeruginosa, CAMHB, 35° C., 20 hours, read-out: Antibacterial activity (MIC) NB52019
How it was run: as §1

[7] = system: S. aureus ATCC 49951 (NB01006); assay: MIC by broth microdilution, S. aureus NB01006; settings: Staphylococcus aureus, ATCC49951, CAMHB, 35° C., 20 hours, read-out: Antibacterial activity (MIC) NB01006
How it was run: as §1

[8] = ATCC25922, S. pneumoniae, CAMHB supplemented with 5% lysed horse blood, 35° C., 20 hours

SMILES	MIC [1] [µg/mL]	MIC ([2]; ATCC25922, 20 h) [µg/mL]	MIC [3] [µg/mL]	MIC [4] [µg/mL]	MIC [5] [µg/mL]	MIC [6] [µg/mL]	MIC [7] [µg/mL]	MIC [2, 8] [µg/mL]
C[C@H]1COc2c(N3CC(CO)C(N(C)C)C3)c(F)cc3cc(C(=O)O)c(=O)n1c23 (single isomer, unassigned) [Example 1.78]	> 32	1 to 32 (≈ 2.47 to 78.9 µM)	> 32	> 32	1 to 32 (≈ 2.47 to 78.9 µM)	> 32	1 to 32 (≈ 2.47 to 78.9 µM)	–
CC1CCc2c(N3CC[C@@H](C4(N)CC4)C3)c(F)cc3cc(C(=O)O)c(=O)n1c23.O=C(O)C(F)(F)F (single isomer, unassigned) [Example 8]	< 1	–	< 1	< 1	1 to 32	1 to 32	< 1	< 1
C[C@H]1COc2c(N3CC[C@@H]([C@@H](N)C(F)F)C3)c(F)cc3cc(C(=O)O)c(=O)n1c23 [Example 1.53, (S)-10-((R)-3-((R)-1-amino-2,2-difluoroethyl)pyrrolidin-1-yl)-9-fluoro-3-methyl-5-oxo-2,3-dihydro-5H-[1,4]oxazino[2,3,4-ij]quinoline-6-carboxylic acid]	< 1	< 1	1 to 32 (≈ 2.43 to 77.8 µM)	< 1	1 to 32 (≈ 2.43 to 77.8 µM)	> 32	< 1	–
C[C@H]1COc2c(N3CCC(=C(Cl)CN)CC3)c(F)cc3cc(C(=O)O)c(=O)n1c23 [Example 1.10, (S)-10-(4-(2-amino-1-chloroethylidene)piperidin-1-yl)-9-fluoro-3-methyl-5-oxo-2,3-dihydro-5H-[1,4]oxazino[2,3,4-ij]quinoline-6-carboxylic acid]	1 to 32 (≈ 2.37 to 75.9 µM)	< 1	> 32	1 to 32 (≈ 2.37 to 75.9 µM)	> 32	> 32	1 to 32 (≈ 2.37 to 75.9 µM)	–
C[C@H](N)[C@@H]1CCN(c2ccc3cc(C(=O)O)c(=O)n4c3c2OC[C@@H]4C)C1 [Example 12.4, (S)-10-((R)-3-((S)-1-aminoethyl)pyrrolidin-1-yl)-3-methyl-5-oxo-2,3-dihydro-5H-[1,4]oxazino[2,3,4-ij]quinoline-6-carboxylic acid]	< 1	< 1	1 to 32 (≈ 2.8 to 89.5 µM)	1 to 32 (≈ 2.8 to 89.5 µM)	1 to 32 (≈ 2.8 to 89.5 µM)	1 to 32 (≈ 2.8 to 89.5 µM)	< 1	–
C[C@H]1COc2c(N3CCC4(CC3)CC4N)c(F)cc3cc(C(=O)O)c(=O)n1c23 (single isomer, unassigned) [Example 1.33]	1 to 32 (≈ 2.58 to 82.6 µM)	1 to 32 (≈ 2.58 to 82.6 µM)	> 32	1 to 32 (≈ 2.58 to 82.6 µM)	1 to 32 (≈ 2.58 to 82.6 µM)	> 32	1 to 32 (≈ 2.58 to 82.6 µM)	–
C[C@H]1COc2c(N3CC4CCCC4(N)C3)c(F)cc3cc(C(=O)O)c(=O)n1c23 (stereo partly drawn) [Example 1.13, (3S)-10-(3a-aminohexahydrocyclopenta [c]pyrrol-2(1H)-yl)-9-fluoro-3-methyl-5-oxo-2,3-dihydro-5H-[1,4]oxazino[2,3,4-ij]quinoline-6-carboxylic acid]	1 to 32 (≈ 2.58 to 82.6 µM)	1 to 32 (≈ 2.58 to 82.6 µM)	> 32	> 32	1 to 32 (≈ 2.58 to 82.6 µM)	> 32	1 to 32 (≈ 2.58 to 82.6 µM)	–
CC(N)C1(F)CCN(c2c(F)cc3cc(C(=O)O)c(=O)n4c3c2OC[C@@H]4C)C1 (single isomer, unassigned) [Example 1.47]	1 to 32 (≈ 2.54 to 81.3 µM)	< 1	1 to 32 (≈ 2.54 to 81.3 µM)	1 to 32 (≈ 2.54 to 81.3 µM)	1 to 32 (≈ 2.54 to 81.3 µM)	> 32	< 1	–
C[C@H]1COc2c(N3CCN(C)CC3)c(F)c(F)c3cc(C(=O)O)c(=O)n1c23 [Example 13.3]	> 32	–	> 32	> 32	1 to 32 (≈ 2.64 to 84.4 µM)	> 32	1 to 32 (≈ 2.64 to 84.4 µM)	> 32
C[C@H]1COc2c(N3CC(CN)C4(CCC4)C3)c(F)cc3cc(C(=O)O)c(=O)n1c23 (single isomer, unassigned) [Example 1.49]	< 1	< 1	1 to 32 (≈ 2.49 to 79.7 µM)	1 to 32 (≈ 2.49 to 79.7 µM)	1 to 32 (≈ 2.49 to 79.7 µM)	1 to 32 (≈ 2.49 to 79.7 µM)	< 1	–
CCC(N)C1CCN(c2c(F)cc3cc(C(=O)O)c(=O)n4c3c2OC[C@@H]4C)C1 (single isomer, unassigned) [Example 1.45]	< 1	< 1	1 to 32 (≈ 2.57 to 82.2 µM)	< 1	1 to 32 (≈ 2.57 to 82.2 µM)	> 32	< 1	–
C[C@H]1CSc2c(N3CC[C@@H](C4(N)CC4)C3)c(F)cc3cc(C(=O)O)c(=O)n1c23.Cl [Example 11, (S)-10-((R)-3-(1-aminocyclopropyl)pyrrolidin-1-yl)-9-fluoro-3-methyl-5-oxo-2,3-dihydro-5H-[1,4]thiazino[2,3,4-ij]quinoline-6-carboxylic acid hydrochloride salt]	< 1	–	1 to 32	< 1	1 to 32	> 32	< 1	< 1
C[C@H]1COc2c(N3C4CCC3CC4)c(F)cc3cc(C(=O)O)c(=O)n1c23 [Example 1.61, (S)-10-(7-azabicyclo[2.2.1]heptan-7-yl)-9-fluoro-3-methyl-5-oxo-2,3-dihydro-5H-[1,4]oxazino[2,3,4-ij]quinoline-6-carboxylic acid]	> 32	–	> 32	> 32	> 32	> 32	> 32	> 32
C[C@H]1COc2c(N3CC[C@@H](C4(N)CC4)C3)c(F)c(F)c3cc(C(=O)O)c(=O)n1c23 [Example 13.1, (S)-10-((R)-3-(1-aminocyclopropyl)pyrrolidin-1-yl)-8,9-difluoro-3-methyl-5-oxo-2,3-dihydro-5H-[1,4]oxazino[2,3,4-ij]quinoline-6-carboxylic acid hydrochloride salt]	< 1	< 1	< 1	< 1	< 1	1 to 32	< 1	–
C[C@H]1COc2c(N3CCC(F)(CN)C3)c(F)c(F)c3cc(C(=O)O)c(=O)n1c23 (stereo partly drawn) [Example 13.5, (3S)-10-(3-(aminomethyl)-3-fluoropyrrolidin-1-yl)-8,9-difluoro-3-methyl-5-oxo-2,3-dihydro-5H-[1,4]oxazino[2,3,4-ij]quinoline-6-carboxylic acid]	< 1	< 1	1 to 32 (≈ 2.52 to 80.5 µM)	1 to 32 (≈ 2.52 to 80.5 µM)	1 to 32 (≈ 2.52 to 80.5 µM)	> 32	< 1	–
CC1Cc2c(N3CC[C@@H](C4(N)CC4)C3)c(F)cc3cc(C(=O)O)c(=O)n1c23.Cl (single isomer, unassigned) [Example 9.1]	< 1	–	1 to 32	< 1	1 to 32	> 32	< 1	< 1
C[C@H]1COc2c(N3CC(N)C(CO)C3)c(F)cc3cc(C(=O)O)c(=O)n1c23 (single isomer, unassigned) [Example 1.77]	> 32	1 to 32 (≈ 2.65 to 84.8 µM)	> 32	> 32	> 32	> 32	1 to 32 (≈ 2.65 to 84.8 µM)	–
C[C@H]1COc2c(N3CCC(N)(CO)CC3)c(F)cc3cc(C(=O)O)c(=O)n1c23 [Example 1.67, (S)-10-(4-amino-4-(hydroxymethyl)piperidin-1-yl)-9-fluoro-3-methyl-5-oxo-2,3-dihydro-5H-[1,4]oxazino[2,3,4-ij]quinoline-6-carboxylic acid]	> 32	> 32	> 32	> 32	> 32	> 32	> 32	–
C[C@H]1COc2c(N3CC[C@@H](C4(N)CC4)C3)cc(C#N)c3cc(C(=O)O)c(=O)n1c23 [Example 21.2, (S)-10-((R)-3-(1-aminocyclopropyl)pyrrolidin-1-yl)-8-cyano-3-methyl-5-oxo-2,3-dihydro-5H-[1,4]oxazino[2,3,4-ij]quinoline-6-carboxylic acid]	1 to 32 (≈ 2.54 to 81.1 µM)	< 1	1 to 32 (≈ 2.54 to 81.1 µM)	1 to 32 (≈ 2.54 to 81.1 µM)	1 to 32 (≈ 2.54 to 81.1 µM)	> 32	< 1	–
C[C@H]1COc2c(N3CCC(F)(CN)C3)c(F)cc3cc(C(=O)O)c(=O)n1c23 (stereo partly drawn) [Example 1.16, (3S)-10-(3-(aminomethyl)-3-fluoropyrrolidin-1-yl)-9-fluoro-3-methyl-5-oxo-2,3-dihydro-5H-[1,4]oxazino[2,3,4-ij]quinoline-6-carboxylic acid]	1 to 32 (≈ 2.64 to 84.4 µM)	< 1	1 to 32 (≈ 2.64 to 84.4 µM)	1 to 32 (≈ 2.64 to 84.4 µM)	1 to 32 (≈ 2.64 to 84.4 µM)	> 32	< 1	–
COc1c(N2C[C@@H]3CCCN[C@@H]3C2)c(F)cc2c(=O)c(C(=O)O)cn(C3CC3)c12 [MOX, moxifloxacin, reference compound]	< 1	< 1	1 to 32 (≈ 2.49 to 79.7 µM)	> 32	< 1	1 to 32 (≈ 2.49 to 79.7 µM)	< 1	–
